Results published in patent US20230066946A1, “1,5-DIPHENYLPYRAZOLYL-3-OXYALKYL ACIDS AND 1-PHENYL-5-THIENYLPYRAZOLYL-3-OXYALKYL ACIDS AND THE USE THEREOF FOR CONTROL OF UNWANTED PLANT GROWTH” (Bayer Aktiengesellschaft, priority 2019, published 2023).

How the values were obtained:
[1] = tested on: STEME; assay: Pre-emergence herbicidal action against STEME; assay type: in vivo, Stellaria media; details: 1280 g/ha, scored visually after about 3 weeks vs untreated controls
Excerpt: (§1) Seeds of mono- and dicotyledonous weed plants are placed in plastic pots in sandy loam soil (doubly sown with one species each of mono- or dicotyledonous weed plants per pot) and covered with soil. The compounds of the invention, formulated in the form of wettable powders (WP) or as emulsion concentrates (EC), are then applied onto the surface of the covering soil as aqueous suspension or emulsion with addition of 0.5% additive at a water application rate equivalent to 600 litres per hectare. After the treatment, the pots are placed in a greenhouse and kept under good growth conditions for the trial plants. After about 3 weeks, the effect of the preparations is scored visually in comparison with untreated controls as percentages. For example, 100% activity=the plants have died, 0% activity=like control plants. [table] Tables 4.1-4.15 below show the effects of selected compounds of the general formula (I) according to Tables 1 to 3 on various harmful plants at an application rate corresponding to 1280 or 320 g/ha, which have been obtained by the aforementioned experimental method.

[2] = tested on: MATIN; assay: Post-emergence herbicidal action against MATIN; assay type: in vivo, Matricaria inodora; details: 1280 g/ha, visual rating about 3 weeks after treatment
Description: (§2) [table] Seeds of mono- and dicotyledonous weed plants are placed in plastic pots in sandy loam soil (twin sowing with one species each of mono- or dicotyledonous weed plants per pot), covered with soil and cultivated in a greenhouse under controlled growth conditions. 2 to 3 weeks after sowing, the test plants are treated at the one-leaf stage. The compounds of the invention, formulated in the form of wettable powders (WP) or as emulsion concentrates (EC), are applied to the green parts of the plants as aqueous suspension or emulsion with addition of 0.5% additive at a water application rate equivalent to 600 litres per hectare. After the test plants have been kept in the greenhouse under optimum growth conditions for about 3 weeks, the activity of the preparations is rated visually in comparison to untreated controls. For example, 100% activity=the plants have died, 0% activity=like control plants. Tables 5.1-5.16 below show the effects of selected compounds of the general formula (I) according to Tables 1 to 3 on various harmful plants at an application rate corresponding to 1280 or 320 g/ha, which have been obtained by the aforementioned experimental method.

[3] = tested on: ECHCG; assay: Pre-emergence herbicidal action against ECHCG; assay type: in vivo, Echinochloa crus-galli; details: scored visually after about 3 weeks vs untreated controls, 100% = plants have died, 0% = like control plants
Excerpt: as §1

[4] = tested on: AMARE; assay: Post-emergence herbicidal action against AMARE; assay type: in vivo, Amaranthus retroflexus; details: 1280 g/ha, visual rating about 3 weeks after treatment
Description: as §2

[5] = tested on: AMARE; assay: Pre-emergence herbicidal action against AMARE; assay type: in vivo, Amaranthus retroflexus; details: 1280 g/ha, scored visually after about 3 weeks vs untreated controls
Excerpt: as §1

[6] = tested on: SETVI; assay: Pre-emergence herbicidal action against SETVI; assay type: in vivo, Setaria viridis; details: 1280 g/ha, scored visually after about 3 weeks vs untreated controls
Excerpt: as §1

[7] = tested on: STEME; assay: Post-emergence herbicidal action against STEME; assay type: in vivo, Stellaria media; details: 1280 g/ha, visual rating about 3 weeks after treatment
Description: as §2

[8] = tested on: SETVI; assay: Post-emergence herbicidal action against SETVI; assay type: in vivo, Setaria viridis; details: 1280 g/ha, post-emergence at one-leaf stage, rated visually after about 3 weeks vs untreated controls
Description: as §2

CCOC(=O)COc1nn(-c2ccc(F)cc2)c(-c2ccc(F)cc2)c1Br [I-076]
Pre-emergence action against STEME in % [1]: 100% | Post-emergence action against MATIN in % [2]: 90% | Pre-emergence action at 1280 g/ha against ECHCG in % [3]: 90% | Post-emergence action against AMARE in % [4]: 100% | Pre-emergence action against AMARE in % [5]: 100% | Pre-emergence action against SETVI in % [6]: 100%

CCOC(=O)COc1nn(-c2ccccc2)c(-c2ccc(F)cc2F)c1Br [I-085]
Post-emergence action against STEME in % [7]: 100% | Post-emergence action against MATIN in % [2]: 90% | Pre-emergence action at 1280 g/ha against ECHCG in % [3]: 100% | Post-emergence action against AMARE in % [4]: 100% | Pre-emergence action against AMARE in % [5]: 100% | Pre-emergence action against SETVI in % [6]: 100%

CCOC(=O)COc1nn(-c2ccccc2OC)c(-c2ccc(F)cc2)c1Br [I-089]
Post-emergence action against SETVI in % [8]: 100% | Post-emergence action against AMARE in % [4]: 100%

O=C(COc1nn(-c2ccccc2)c(-c2ccc(F)cc2)c1Br)OCc1cccc(F)c1 [I-111]
Post-emergence action against STEME in % [7]: 90% | Pre-emergence action against STEME in % [1]: 100% | Post-emergence action against MATIN in % [2]: 90% | Pre-emergence action at 1280 g/ha against ECHCG in % [3]: 100% | Post-emergence action against AMARE in % [4]: 100% | Pre-emergence action against SETVI in % [6]: 90%

COC(=O)COc1nn(-c2cccc(F)c2)c(-c2ccccc2)c1Br [I-114]
Pre-emergence action against STEME in % [1]: 100% | Post-emergence action against MATIN in % [2]: 90% | Pre-emergence action at 1280 g/ha against ECHCG in % [3]: 90% | Post-emergence action against AMARE in % [4]: 100% | Pre-emergence action against AMARE in % [5]: 100% | Pre-emergence action against SETVI in % [6]: 100%

O=C(O)COc1nn(-c2ccc(F)cc2)c(-c2cccc(F)c2)c1Br [I-119]
Post-emergence action against STEME in % [7]: 90% | Pre-emergence action against STEME in % [1]: 100% | Post-emergence action against MATIN in % [2]: 90% | Post-emergence action against AMARE in % [4]: 100% | Pre-emergence action against AMARE in % [5]: 100% | Pre-emergence action against SETVI in % [6]: 100%

COC(=O)COc1nn(-c2cccc(F)c2)c(-c2ccccc2)c1[N+](=O)[O-] [I-122]
Pre-emergence action at 1280 g/ha against ECHCG in % [3]: 100% | Pre-emergence action against AMARE in % [5]: 100%

CCOC(=O)COc1nn(-c2ccccc2F)c(-c2ccc(F)c(F)c2)c1Cl [I-131]
Post-emergence action against STEME in % [7]: 90% | Post-emergence action against MATIN in % [2]: 90% | Pre-emergence action at 1280 g/ha against ECHCG in % [3]: 100% | Pre-emergence action against AMARE in % [5]: 100% | Pre-emergence action against SETVI in % [6]: 100%

CCOC(=O)COc1nn(-c2ccccc2F)c(-c2ccc(F)c(F)c2)c1Br [I-133]
Post-emergence action against STEME in % [7]: 100% | Pre-emergence action against STEME in % [1]: 100% | Post-emergence action against MATIN in % [2]: 90% | Pre-emergence action at 1280 g/ha against ECHCG in % [3]: 90% | Post-emergence action against AMARE in % [4]: 90% | Pre-emergence action against AMARE in % [5]: 100% | Pre-emergence action against SETVI in % [6]: 100%

CCOC(=O)COc1nn(-c2c(F)cccc2F)c(-c2ccc(F)c(F)c2)c1Br [I-134]
Post-emergence action against STEME in % [7]: 100% | Pre-emergence action against STEME in % [1]: 100% | Pre-emergence action at 1280 g/ha against ECHCG in % [3]: 100% | Post-emergence action against AMARE in % [4]: 90% | Pre-emergence action against AMARE in % [5]: 100% | Pre-emergence action against SETVI in % [6]: 100%

CC(C)(Oc1nn(-c2ccccc2)c(-c2ccc(F)cc2)c1Br)C(=O)O [I-140]
Post-emergence action against STEME in % [7]: 100% | Pre-emergence action against STEME in % [1]: 100% | Pre-emergence action at 1280 g/ha against ECHCG in % [3]: 90% | Pre-emergence action against AMARE in % [5]: 90% | Pre-emergence action against SETVI in % [6]: 100%

CCOC(=O)COc1nn(-c2c(F)cccc2F)c(-c2ccc(F)c(F)c2)c1Cl [I-142]
Post-emergence action against STEME in % [7]: 100% | Pre-emergence action against STEME in % [1]: 100% | Post-emergence action against MATIN in % [2]: 90% | Pre-emergence action at 1280 g/ha against ECHCG in % [3]: 100% | Pre-emergence action against AMARE in % [5]: 100% | Pre-emergence action against SETVI in % [6]: 100%

COC(=O)C(C)Oc1nn(-c2ccccc2)c(-c2ccc(F)cc2)c1Cl (centres unmarked) [I-145]
Post-emergence action against STEME in % [7]: 100% | Pre-emergence action against STEME in % [1]: 100% | Post-emergence action against MATIN in % [2]: 90% | Post-emergence action against SETVI in % [8]: 90% | Pre-emergence action at 1280 g/ha against ECHCG in % [3]: 100% | Pre-emergence action against AMARE in % [5]: 90% | Pre-emergence action against SETVI in % [6]: 100%

CC(Oc1nn(-c2ccccc2F)c(-c2ccc(F)c(F)c2)c1Br)C(=O)O (centres unmarked) [I-168]
Post-emergence action against STEME in % [7]: 100% | Pre-emergence action against STEME in % [1]: 100% | Post-emergence action against MATIN in % [2]: 90% | Pre-emergence action at 1280 g/ha against ECHCG in % [3]: 90% | Pre-emergence action against AMARE in % [5]: 100%

C=C(C)CNC(=O)COc1nn(-c2ccccc2F)c(-c2ccccc2)c1Br [III-001]
Pre-emergence action against STEME in % [1]: 100% | Post-emergence action against SETVI in % [8]: 100% | Pre-emergence action at 1280 g/ha against ECHCG in % [3]: 90% | Post-emergence action against AMARE in % [4]: 100% | Pre-emergence action against SETVI in % [6]: 100%

O=C(COc1nn(-c2ccccc2)c(-c2ccc(F)cc2)c1Br)NCC1CC1 [III-005]
Pre-emergence action against STEME in % [1]: 100% | Pre-emergence action at 1280 g/ha against ECHCG in % [3]: 100% | Pre-emergence action against AMARE in % [5]: 90% | Pre-emergence action against SETVI in % [6]: 100%

C#CCNC(=O)COc1nn(-c2ccc(F)cc2)c(-c2cccc(F)c2)c1Br [III-016]
Pre-emergence action against STEME in % [1]: 100% | Pre-emergence action at 1280 g/ha against ECHCG in % [3]: 100% | Post-emergence action against AMARE in % [4]: 90% | Pre-emergence action against AMARE in % [5]: 100% | Pre-emergence action against SETVI in % [6]: 100%

C#CCNC(=O)COc1nn(-c2ccc(F)cc2)c(-c2cccc(F)c2)c1Cl [III-023]
Pre-emergence action against STEME in % [1]: 100% | Post-emergence action against SETVI in % [8]: 100% | Pre-emergence action at 1280 g/ha against ECHCG in % [3]: 90% | Pre-emergence action against AMARE in % [5]: 90% | Pre-emergence action against SETVI in % [6]: 100%

O=C(COc1nn(-c2ccc(F)cc2)c(-c2cccc(F)c2)c1Cl)NC1CC1 [III-024]
Pre-emergence action against STEME in % [1]: 100% | Pre-emergence action at 1280 g/ha against ECHCG in % [3]: 90% | Pre-emergence action against AMARE in % [5]: 100% | Pre-emergence action against SETVI in % [6]: 100%

COC(=O)CCNC(=O)COc1nn(-c2ccc(F)cc2)c(-c2cccc(F)c2)c1Cl [III-026]
Post-emergence action against MATIN in % [2]: 90% | Post-emergence action against SETVI in % [8]: 100% | Post-emergence action against AMARE in % [4]: 90% | Pre-emergence action against AMARE in % [5]: 90% | Pre-emergence action against SETVI in % [6]: 90%

CCOC(=O)CCNC(=O)COc1nn(-c2cccc(F)c2)c(-c2ccccc2)c1Br [III-033]
Pre-emergence action against STEME in % [1]: 100% | Post-emergence action against SETVI in % [8]: 100% | Pre-emergence action at 1280 g/ha against ECHCG in % [3]: 90% | Post-emergence action against AMARE in % [4]: 90% | Pre-emergence action against AMARE in % [5]: 90% | Pre-emergence action against SETVI in % [6]: 100%

C=CCNC(=O)COc1nn(-c2c(F)cccc2F)c(-c2ccc(F)c(F)c2)c1Br [III-054]
Post-emergence action against SETVI in % [8]: 100% | Pre-emergence action against AMARE in % [5]: 90% | Pre-emergence action against SETVI in % [6]: 90%

C=CCNC(=O)COc1nn(-c2ccccc2F)c(-c2ccc(F)c(F)c2)c1[N+](=O)[O-] [III-066]
Pre-emergence action against STEME in % [1]: 90% | Post-emergence action against SETVI in % [8]: 100% | Pre-emergence action against AMARE in % [5]: 90% | Pre-emergence action against SETVI in % [6]: 90%

C=CCNC(=O)COc1nn(-c2c(F)cccc2F)c(-c2ccc(F)c(F)c2)c1Cl [III-068]
Pre-emergence action against STEME in % [1]: 90% | Post-emergence action against MATIN in % [2]: 90% | Post-emergence action against SETVI in % [8]: 90% | Pre-emergence action at 1280 g/ha against ECHCG in % [3]: 100% | Pre-emergence action against AMARE in % [5]: 90% | Pre-emergence action against SETVI in % [6]: 100%
